The source of these data is patent US8552002B2 (Novartis AG, priority 2004, dated 2013).

Read-outs that look alike come from different tables or passages of the source.

Series [1] addresses T1, KDR (Homo sapiens, UniProt P35968).
T1 construct: expressed in transfected cells; host or cells: CHO cells
Nature of the series: Inhibitory activity against KDR (VEGF-R2), in vitro data of Examples 170 and 207. Type of series: biochemical. Conditions: read-out: KDR inhibition at 10 μM. In a few lines:
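KDR tyrosine phosphorylation detected by luminescence after overnight 4° C capture of 20 μg lysate protein with PY20:AP antibody. Lysates came from cells given compound for 2 h at 37° C, then final 20 ng/ml VEGF for 5 min; compound-free medium as control.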

In series [2] the target is T2, FGFR3 (K650E) (Homo sapiens, UniProt P22607, K650E).
T2 construct: amino acids 411-806 of the cytoplasmic domain of human FGFR-3, N-terminally fused to GST; made in house; host or cells: Sf9 insect cells (baculovirus)
T2 sequence (P22607 411-806 K650E): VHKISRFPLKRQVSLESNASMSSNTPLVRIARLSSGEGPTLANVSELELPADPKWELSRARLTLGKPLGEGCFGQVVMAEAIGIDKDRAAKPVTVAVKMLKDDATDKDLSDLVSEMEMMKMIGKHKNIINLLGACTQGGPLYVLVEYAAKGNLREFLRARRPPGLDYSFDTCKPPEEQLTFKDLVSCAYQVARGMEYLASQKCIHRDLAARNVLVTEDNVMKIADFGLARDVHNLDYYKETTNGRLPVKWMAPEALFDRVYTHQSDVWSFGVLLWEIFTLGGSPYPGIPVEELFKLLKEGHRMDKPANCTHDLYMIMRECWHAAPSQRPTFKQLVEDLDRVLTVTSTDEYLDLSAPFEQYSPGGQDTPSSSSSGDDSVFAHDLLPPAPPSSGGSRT
As to the kind of experiment: Recombinant GST-FGFR-3-K650E tyrosine kinase assay (33P into poly(Glu,Tyr)). Type of series: biochemical.

In series [3] the target is T3, Tek (Homo sapiens, UniProt Q02763).
T3 construct: amino acids 773-1124 of the cytoplasmic kinase domain of human Tek, N-terminally fused to GST; made in house; host or cells: Sf9 insect cells (baculovirus)
T3 sequence (Q02763 773-1124): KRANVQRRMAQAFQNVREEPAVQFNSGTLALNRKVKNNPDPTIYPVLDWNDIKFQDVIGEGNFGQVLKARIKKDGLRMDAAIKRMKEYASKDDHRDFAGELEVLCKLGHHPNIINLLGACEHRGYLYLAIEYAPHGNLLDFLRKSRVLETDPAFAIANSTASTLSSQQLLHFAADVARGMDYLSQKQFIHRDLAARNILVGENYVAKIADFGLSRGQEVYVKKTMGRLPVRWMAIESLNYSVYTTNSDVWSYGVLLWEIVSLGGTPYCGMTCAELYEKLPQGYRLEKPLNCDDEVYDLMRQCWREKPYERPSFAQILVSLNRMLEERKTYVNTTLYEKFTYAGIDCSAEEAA
As to the kind of experiment: Recombinant GST-Tek (Tie-2) tyrosine kinase assay (33P into poly(Glu,Tyr)). Type of series: biochemical. As to conditions: Examples 1 to 169. A digest of the protocol: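 Read-out is filter-bound 33P in poly(Glu,Tyr) 4:1 (10 μg/mL) after 30 min at ambient temperature with 4.0 μM ATP. Enzyme: 150 ng human GST-Tek (aa 773-1124) from insect cells, in Tris pH 7.5 with Mn2+/Mg2+ and vanadate. IC50 fitted linearly over four concentrations, usually 0.01-10 μM.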

The target in series [4] is c-Abl (Homo sapiens, UniProt P00519). Nature of the series: Inhibitory activity against c-Abl (Example 207). Type of series: biochemical. As to conditions: Examples 171 to 206.
Chain of c-Abl (P00519 whole entry): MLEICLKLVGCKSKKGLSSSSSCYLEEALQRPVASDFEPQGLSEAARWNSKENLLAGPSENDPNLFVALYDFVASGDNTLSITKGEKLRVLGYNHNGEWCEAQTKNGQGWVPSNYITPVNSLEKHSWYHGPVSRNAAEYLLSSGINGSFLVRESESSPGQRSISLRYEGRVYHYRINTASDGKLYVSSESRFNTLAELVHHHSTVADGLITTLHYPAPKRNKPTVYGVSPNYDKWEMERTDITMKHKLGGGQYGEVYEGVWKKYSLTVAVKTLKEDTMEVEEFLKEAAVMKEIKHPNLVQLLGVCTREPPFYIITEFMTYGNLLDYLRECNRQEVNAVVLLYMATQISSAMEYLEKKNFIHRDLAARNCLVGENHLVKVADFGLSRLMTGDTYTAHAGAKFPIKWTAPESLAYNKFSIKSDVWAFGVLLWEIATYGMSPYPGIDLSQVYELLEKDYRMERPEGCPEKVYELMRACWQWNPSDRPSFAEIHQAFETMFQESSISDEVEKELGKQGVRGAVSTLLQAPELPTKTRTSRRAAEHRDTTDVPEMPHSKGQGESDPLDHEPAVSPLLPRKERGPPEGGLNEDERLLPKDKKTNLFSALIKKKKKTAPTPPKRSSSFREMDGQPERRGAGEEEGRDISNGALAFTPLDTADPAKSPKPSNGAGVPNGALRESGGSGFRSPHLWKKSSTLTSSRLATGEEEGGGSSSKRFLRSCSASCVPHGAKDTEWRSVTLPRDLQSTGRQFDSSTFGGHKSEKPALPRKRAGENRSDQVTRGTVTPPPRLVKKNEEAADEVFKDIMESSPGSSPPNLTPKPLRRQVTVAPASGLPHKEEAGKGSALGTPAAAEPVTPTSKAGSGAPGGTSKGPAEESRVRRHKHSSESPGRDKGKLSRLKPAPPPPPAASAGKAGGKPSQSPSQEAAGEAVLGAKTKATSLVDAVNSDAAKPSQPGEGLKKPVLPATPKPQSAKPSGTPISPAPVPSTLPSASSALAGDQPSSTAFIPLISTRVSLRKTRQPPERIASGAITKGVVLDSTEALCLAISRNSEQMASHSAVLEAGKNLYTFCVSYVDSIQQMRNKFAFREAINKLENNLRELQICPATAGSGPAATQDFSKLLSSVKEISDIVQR
Where [5] appears, read: 10 μM, Examples 1 to 169, read-out: FGFR3 (K650E) inhibition at 10 μM.
Setting [6] is: read-out: FGFR3 (K650E) inhibition at 10 μM.
Where [7] appears, read: 10 μM, Examples 171 to 206, read-out: FGFR3 inhibition at 10 μM.

T1 sequence (P35968 20-1356): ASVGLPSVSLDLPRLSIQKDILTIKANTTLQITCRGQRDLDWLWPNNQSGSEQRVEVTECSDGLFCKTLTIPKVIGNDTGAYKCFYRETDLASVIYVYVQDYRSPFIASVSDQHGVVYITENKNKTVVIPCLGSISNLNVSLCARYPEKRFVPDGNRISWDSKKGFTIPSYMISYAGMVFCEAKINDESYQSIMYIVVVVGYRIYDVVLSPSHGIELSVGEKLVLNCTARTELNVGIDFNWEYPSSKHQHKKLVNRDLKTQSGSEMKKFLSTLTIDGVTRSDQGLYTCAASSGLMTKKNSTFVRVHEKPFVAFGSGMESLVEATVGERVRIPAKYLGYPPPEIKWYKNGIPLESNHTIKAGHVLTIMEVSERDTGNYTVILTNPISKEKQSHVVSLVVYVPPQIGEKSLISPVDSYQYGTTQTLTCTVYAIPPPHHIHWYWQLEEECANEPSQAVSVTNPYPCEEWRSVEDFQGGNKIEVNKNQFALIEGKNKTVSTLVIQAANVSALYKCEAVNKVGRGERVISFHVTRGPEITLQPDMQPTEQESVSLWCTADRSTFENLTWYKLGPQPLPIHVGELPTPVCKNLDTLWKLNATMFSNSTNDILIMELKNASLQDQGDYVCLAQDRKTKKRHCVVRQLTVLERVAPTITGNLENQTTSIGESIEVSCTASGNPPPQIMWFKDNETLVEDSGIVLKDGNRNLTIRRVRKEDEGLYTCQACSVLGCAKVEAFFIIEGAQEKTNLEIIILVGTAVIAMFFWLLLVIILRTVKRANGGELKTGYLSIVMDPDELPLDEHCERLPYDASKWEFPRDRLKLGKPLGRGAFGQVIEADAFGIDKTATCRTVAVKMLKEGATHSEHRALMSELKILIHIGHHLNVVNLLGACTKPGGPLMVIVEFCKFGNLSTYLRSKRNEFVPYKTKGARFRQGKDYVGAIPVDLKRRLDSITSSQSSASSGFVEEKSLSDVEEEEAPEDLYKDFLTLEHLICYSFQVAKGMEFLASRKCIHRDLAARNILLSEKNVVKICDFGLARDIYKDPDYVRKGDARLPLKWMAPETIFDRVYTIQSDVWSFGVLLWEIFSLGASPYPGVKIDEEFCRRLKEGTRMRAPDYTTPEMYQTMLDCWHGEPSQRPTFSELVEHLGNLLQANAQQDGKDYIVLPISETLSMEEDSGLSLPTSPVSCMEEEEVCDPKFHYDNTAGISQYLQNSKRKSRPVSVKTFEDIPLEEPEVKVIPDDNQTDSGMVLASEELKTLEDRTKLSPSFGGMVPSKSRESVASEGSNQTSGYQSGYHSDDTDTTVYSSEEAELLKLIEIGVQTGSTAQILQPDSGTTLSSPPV

What is called inhibition is the percentage by which the read-out fell short of the control. The term melting point denotes the temperature of the solid-liquid transition. In turn, `CN1CCN(c2cccc(Nc3cc(NC(=O)Nc4c(Cl)cccc4Cl)ncn3)c2)CC1` [Example 5, 1-(2,6-Dichloro-phenyl)-3-{6-[3-(4-methyl-piperazin-1-yl)-phenylamino]-pyrimidin-4-yl}-urea] came in with a melting point of 209 to 212 °C. The inhibition at 10 µM in series [1] (10 μM, Examples 1 to 169) fell in the range of 67 to 100%. Besides, the inhibition at 10 µM in series [2] (setting [5]) was 27 to 100%. Besides, the inhibition at 10 µM in series [3] is 12 to 100%.
`CN1CCN(C(=O)c2ccc(Nc3cc(NC(=O)Nc4c(Cl)cc(Cl)cc4Cl)ncn3)cc2)CC1` [Example 85, 1-{6-[4-(4-Methyl-piperazin-1-carbonyl)-phenylamino]-pyrimidin-4-yl}-3-(2,4,6-trichloro-phenyl)-urea] yielded a melting point of 165 to 175 °C. Besides, in series [1] (10 μM, Examples 1 to 169), the inhibition at 10 µM was in the range of 67 to 100%. Moreover, the inhibition at 10 µM in series [2] (setting [5]) was 27 to 100%. In addition, the inhibition at 10 µM in series [3] was 12 to 100%.
Take `Cc1cccc(Cl)c1NC(=O)Nc1cc(N[C@H]2CC[C@H](O[Si](C)(C)C(C)(C)C)CC2)ncn1` [Example 89, 1-{6-[(trans)-4-(tert-Butyl-dimethyl-silanyloxy)-cyclohexylamino]-pyrimidin-4-yl}-3-(2-chloro-6-methyl-phenyl)-urea]: the melting point is 218 to 220 °C. Further, the inhibition at 10 µM in series [1] fell in the range of 67 to 100%. Besides, the inhibition at 10 µM in series [2] (setting [6]) was in the range of 27 to 100%. The inhibition at 10 µM in series [3] is 12 to 100%.
With `CN1CCC(COc2ccc(Nc3cc(NC(=O)Nc4c(Cl)cccc4Cl)ncn3)cc2)CC1` [Example 71, 1-(2,6-Dichloro-phenyl)-3-{6-[4-(1-methyl-piperidin-4-ylmethoxy)-phenylamino]-pyrimidin-4-yl}-urea], the melting point lay in the range of 183 to 185 °C. Moreover, the inhibition at 10 µM in series [1] (10 μM, Examples 1 to 169) lay in the range of 67 to 100%. For the same compound, the inhibition at 10 µM in series [2] (setting [5]) fell in the range of 27 to 100%. The inhibition at 10 µM in series [3] is 12 to 100%.
In the case of `Cc1cccc(Cl)c1NC(=O)Nc1cc(Nc2ccc(OCC3CCN(C)CC3)cc2)ncn1` [Example 70, 1-(2-Chloro-6-methyl-phenyl)-3-{6-[4-(1-methyl-piperidin-4-ylmethoxy)-phenylamino]-pyrimidin-4-yl}-urea], the melting point was 178 to 180 °C. In series [1] (10 μM, Examples 1 to 169), the inhibition at 10 µM was in the range of 67 to 100%. Moreover, the inhibition at 10 µM in series [2] (setting [5]) was in the range of 27 to 100%. Besides, the inhibition at 10 µM in series [3] was 12 to 100%.
On the same counts, the results for `Cc1cccc(Cl)c1NC(=O)Nc1cc(NC(C)C)ncn1` [Example 65, 1-(2-Chloro-6-methyl-phenyl)-3-(6-isopropylamino-pyrimidin-4-yl)-urea] are 233 °C, 67 to 100%, 27 to 100% and 12 to 100%.
For the compound `CC(C)(C)[Si](C)(C)O[C@H]1CC[C@H](Nc2cc(NC(=O)Nc3c(Cl)cccc3Cl)ncn2)CC1` [Example 91, 1-{6-[(trans)-4-(tert-Butyl-dimethyl-silanyloxy)-cyclohexylamino]-pyrimidin-4-yl}3-(2,6-dichloro-phenyl)-urea], the melting point is 211 to 212 °C. Moreover, the inhibition at 10 µM in series [1] is 67 to 100%. In series [2] (setting [6]), the inhibition at 10 µM fell in the range of 27 to 100%. Also, the inhibition at 10 µM in series [3] lay within 12 to 100%.
As to `CN1CCN(c2ccc(Nc3cc(NC(=O)Nc4c(Cl)cc(Cl)cc4Cl)ncn3)cc2)CC1` [Example 73, 1-{6-[4-(4-Methyl-piperazin-1-yl)-phenylamino]-pyrimidin-4-yl}-3-(2,4,6-trichloro-phenyl)-urea], the melting point is 209 to 211 °C. Further, the inhibition at 10 µM in series [1] (10 μM, Examples 1 to 169) is 67 to 100%. In addition, in series [2] (setting [5]), the inhibition at 10 µM was in the range of 27 to 100%. For the same compound, the inhibition at 10 µM in series [3] is 12 to 100%.
The compound `COc1ccc(Cl)c(NC(=O)N(C)c2cc(Nc3ccc(N4CCN(C)CC4)cc3)ncn2)c1Cl` [Example 1, 3-(2,6-Dichloro-3-methoxy-phenyl)-1-methyl-1-{6-[4-(4-methyl-piperazin-1-yl)-phenylamino]-pyrimidin-4-yl}-urea] registered a melting point of 161.5 to 163 °C. Besides, the inhibition at 10 µM in series [1] (10 μM, Examples 1 to 169) lay within 67 to 100%. For the same compound, in series [3], the inhibition at 10 µM is 12 to 100%.
`COc1cc(OC)c(Cl)c(NC(=O)N(C)c2cc(Nc3ccc(N4CCN(C)CC4)cc3)ncn2)c1Cl` [Example 2, 3-(2,6-Dichloro-3,5-dimethoxy-phenyl)-1-methyl-1-{6-[4-(4-methyl-piperazin-1-yl)-phenylamino]-pyrimidin-4-yl}-urea]: the melting point is 221 °C (dec.). In series [1] (10 μM, Examples 1 to 169), the inhibition at 10 µM is 67 to 100%. Besides, the inhibition at 10 µM in series [2] (setting [5]) lay in the range of 27 to 100%. In series [3], the inhibition at 10 µM was 12 to 100%.
On the same counts, the results for `CN1CCC(COc2cccc(Nc3cc(NC(=O)Nc4c(Cl)cc(Cl)cc4Cl)ncn3)c2)CC1` [Example 81, 1-{6-[3-(1-Methyl-piperidin-4-ylmethoxy)-phenylamino]-pyrimidin-4-yl}-3-(2,4,6-trichloro-phenyl)-urea] are 222 to 225 °C, 67 to 100%, 27 to 100% and 12 to 100%.
On the same counts, the results for `CN1CCN(Cc2ccc(Nc3cc(NC(=O)Nc4c(Cl)cccc4Cl)ncn3)cc2)CC1` [Example 83, 1-(2,6-Dichloro-Phenyl)-3-{6-[4-(4-methyl-piperazin-1-ylmethyl)-phenylamino]-pyrimidin-4-yl}-urea] are 199 to 201 °C, 67 to 100%, 27 to 100% and 12 to 100%.
On the same counts, the results for `Cc1cccc(Cl)c1NC(=O)Nc1cc(Nc2ccc(CN3CCN(C)CC3)cc2)ncn1` [Example 82, 1-(2-Chloro-6-methyl-phenyl)-3-{6-[4-(4-methyl-piperazin-1-ylmethyl)-phenylamino]-pyrimidin-4-yl}-urea] are 199 to 201 °C, 67 to 100%, 27 to 100% and 12 to 100%.
`O=C(Nc1cc(N[C@H]2CC[C@H](OC(=O)Nc3c(Cl)cccc3Cl)CC2)ncn1)Nc1c(Cl)cccc1Cl` [Example 66, (2,6-dichloro-phenyl)-carbamic acid 4-{6-[3-(2,6-dichloro-phenyl)-ureido]-pyrimidin-4-ylamino}-cyclohexylester]: the melting point was in the range of 222 to 224 °C. In series [1] (10 μM, Examples 1 to 169), the inhibition at 10 µM lay within 67 to 100%. Moreover, the inhibition at 10 µM in series [2] (setting [5]) was in the range of 27 to 100%. In series [3], the inhibition at 10 µM was in the range of 12 to 100%.
As for `CN1CCN(c2ccc(Nc3cc(NC(=O)Nc4cccc(Cl)c4Cl)ncn3)cc2)CC1` [Example 77, 1-(2,3-Dichloro-Phenyl)-3-{6-[4-(4-methyl-piperazin-1-yl)-phenylamino]-pyrimidin-4-yl}-urea], the melting point fell in the range of 279 to 281 °C. The inhibition at 10 µM in series [1] (10 μM, Examples 1 to 169) was in the range of 67 to 100%. In addition, in series [2] (setting [5]), the inhibition at 10 µM fell in the range of 27 to 100%. Moreover, in series [3], the inhibition at 10 µM is 12 to 100%.
Turning to `CC(C)(C)[Si](C)(C)O[C@H]1CC[C@H](Nc2cc(NC(=O)Nc3c(Cl)cc(Cl)cc3Cl)ncn2)CC1` [Example 87, 1-{6-[(trans)-4-(tert-Butyl-dimethyl-silanyloxy)-cyclohexylamino]-pyrimidin-4-yl}-3-(2,4,6-trichloro-phenyl)-urea], the melting point was 198 to 199 °C. Moreover, in series [1], the inhibition at 10 µM was in the range of 67 to 100%. Besides, the inhibition at 10 µM in series [2] (setting [6]) lay in the range of 27 to 100%. In series [3], the inhibition at 10 µM lay within 12 to 100%.
As for `CC(C)Nc1cc(NC(=O)Nc2c(Cl)cc(Cl)cc2Cl)ncn1` [Example 67, 1-(6-Isopropylamino-pyrimidin-4-yl)-3-(2,4,6-trichloro-phenyl)-urea], the melting point was in the range of 218 to 220 °C. Also, the inhibition at 10 µM in series [1] (10 μM, Examples 1 to 169) fell in the range of 67 to 100%. In addition, the inhibition at 10 µM in series [2] (setting [5]) lay within 27 to 100%. Also, the inhibition at 10 µM in series [3] lay in the range of 12 to 100%.
On the same counts, the results for `CN1CCC(COc2cccc(Nc3cc(NC(=O)Nc4c(Cl)cccc4Cl)ncn3)c2)CC1` [Example 80, 1-(2,6-Dichloro-Phenyl)-3-{6-[3-(1-methyl-piperidin-4-ylmethoxy)-phenylamino]-pyrimidin-4-yl}-urea] are 198 to 200 °C, 67 to 100%, 27 to 100% and 12 to 100%.
Regarding `CCN(CC)CCOc1ccc(Nc2cc(NC(=O)Nc3cc(NC(=O)c4cccc(C(F)(F)F)c4)ccc3C)ncn2)cc1` [Example 176, N-[3-(3-{6-[4-(2-Diethylamino-ethoxy)-phenylamino]-pyrimidin-4-yl}-ureido)-4-methyl-phenyl]-3-trifluoromethyl-benzamide], the inhibition at 10 µM in series [1] (10 μM, Examples 171 to 206) is 87 to 100%; in series [2] (setting [7]), 56 to 98%; in series [4], 79 to 100%.
With `Cc1ccc(NC(=O)c2cccc(C(F)(F)F)c2)cc1NC(=O)N(CCN1CCN(C)CC1)c1cc(Nc2ccccc2)ncn1` [Example 189, N-{4-Methyl-3-[3-[2-(4-methyl-piperazin-1-yl)-ethyl]-3-(6-phenylamino-pyrimidin-4-yl)-ureido]-phenyl}-3-trifluoromethyl-benzamide], the inhibition at 10 µM in series [1] (10 μM, Examples 171 to 206) is 87 to 100%; in series [2] (setting [7]), 56 to 98%; in series [4], 79 to 100%.
